Assay results taken from patent US20260355168A1, “COMPOSITIONS AND METHODS FOR TREATING AND DETECTING CANCER” (CASE WESTERN RESERVE UNIVERSITY, priority 2022, published 2026).
Entries after “also recorded” stand apart in the source; their conditions may differ.

Assays:
PTPμ = PTPμ (Homo sapiens, UniProt P28827); assay: In vitro phosphatase assay, GST-PTPμ_intra, malachite green; format: biochemical; set-up: A2: GST-PTPμ_intra, entire intracellular domain, aa 765-1449 (phosphatase)
Protocol: FIG. 8 illustrates a histogram showing the results of the phosphatase assays. […] The enzyme was pretreated on ice for 10 min, and the reactions started by addition of a peptide substrate and incubation at 30 °C. The amount of released phosphate was measured at 15 min using the malachite green reaction and normalized to that of the vehicle-treated control. Data is presented as percentages±s.e.m. of the indicated number of independent experiments. Differences were assessed using the Student's t-test with comparison to an untreated control sample (as all DMSO samples were set to 100% release). A difference was deemed significant at p<0.05.
A GST fusion protein containing the intracellular domain of PTPμ (B5: aa 765-1449) (PTPμ_intra) was prepared as described. Phosphatase reactions (50 μl total volume) were assembled on ice by mixing 0.4 μg GST-PTPμ_intra with phosphatase buffer (25 mM Hepes pH 7.4, 50 mM NaCl and 2 mM DTT) and compounds (100 μM) or DMSO (1%). […] Colorimetric product was allowed to develop for 15 min at room temperature, and the absorbance of the samples and a standard curve of free phosphate (assembled per the manufacturer's instructions) were read at 600 nm on a Synergy HT Microplate Reader (BioTek Instruments Inc., Winooski, Vermont). The amount of released phosphate was calculated, normalized to that released by the DMSO control sample, and expressed as a percent. […]

parental Sf9 cells = assay: Helix Blue staining of parental Sf9 cells (cell survival); format: cell-based, insect; conditions: 100 μM, 24 h, cells lack PTPμ
Protocol: FIG. 17 illustrates images showing the effects of prioritized inhibitors on cell survival. LN229 cells were plated onto non-adherent surfaces and cultured in the presence of the indicated compounds (100 μM). On day 1, spheres were stained with Helix Blue to detect dying cells. Parental Sf9 cells (which lack PTPμ) plated onto tissue culture plastic were also grown in the presence of the indicated compounds and, on day 1, stained with Helix Blue. Three compounds appeared to cause a qualitative increase in staining in LN229 spheres. No compound was toxic to Sf9 cells.
LN229 cells, plated onto non-adherent surfaces as described above, and parental Sf9 cells (without PTPμ), seeded into 96-well flat bottom tissue culture plates, were treated for 24 h with the indicated compounds (100 μM). The cells and spheres were then treated with 5.5 μM Helix Blue (Biolegend, San Diego, CA) and imaged at 10× on a Leica CTR6500 fluorescence microscope.
The seven penetrant inhibitors were tested to see if they affected the survival of LN229 spheres and parental Sf9 cells (which lack PTPμ) (FIG. 17).

LN229 tumor xenograft = assay: Human glioma flank tumor (LN229) growth assay in nude mice; format: in vivo, athymic nude mice; human LN229 cells
Protocol: FIGS. 9(A-C) illustrates a plot and images of the results of the human glioma tumor model in mice. LN229-flank tumors (n=6 per treatment group) established in nude mice were injected with vehicle or compound once a week for three weeks. A. Tumor sizes were measured once a week for four weeks and normalized to their starting sizes. Data is presented as average percent growth±s.e.m. Between-group comparisons were made using Student's t-test. Differences were considered significant at p<0.05. […] Representative images of H&E-stained sections from tumors (two per treatment group) harvested at 4-weeks are shown.
Glioma-cell tumor xenografts were prepared as previously described. Briefly, LN229 cells (2×10^6 per injection) mixed with Matrigel (Corning, Corning Inc., Corning, NY, USA) were subcutaneously injected into the flank of athymic nude (FoxN1^nu/Foxn1^nu) female mice bred by the Case Western Reserve University Athymic Animal Core Facility or obtained from The Jackson Laboratory (Bar Harbor, ME). Experiments were approved by our IACUC committee. Twelve days post tumor-cell-injection, 247678835 or DMSO was diluted into PBS to give final concentrations of 2 mM or 20%, respectively, and 25 μl was injected into the center of each flank tumor. Additional compound or DMSO injections were given 7 and 14 days after the first injection, and tumor volumes [(length×width^2)/2] were recorded once a week for 4 weeks. At four weeks, mice were sacrificed, and tumors were isolated, fixed in 10% buffered formalin, and prepared for paraffin sectioning. Five micron-thick sections were cut, stained with H&E, and images captured with a Hamamatsu Nanozoomer S60 Slide Scanner (Hama-matsu Photonics, K.K., Bridgewater, NJ, USA).
Human LN229 glioma cells were subcutaneously injected into the flanks of twelve athymic nude mice (n=6 per treatment group). Once tumors were established (12-days post cell injection), DMSO or 247678835 was injected into the center of each tumor once a week for three weeks, and tumor volumes were calculated from caliper measurements. […] Mice were sacrificed 4 weeks after the first treatment, and tumors were harvested, fixed, sectioned, and stained with H&E.

Chain of PTPμ (P28827 21-1452): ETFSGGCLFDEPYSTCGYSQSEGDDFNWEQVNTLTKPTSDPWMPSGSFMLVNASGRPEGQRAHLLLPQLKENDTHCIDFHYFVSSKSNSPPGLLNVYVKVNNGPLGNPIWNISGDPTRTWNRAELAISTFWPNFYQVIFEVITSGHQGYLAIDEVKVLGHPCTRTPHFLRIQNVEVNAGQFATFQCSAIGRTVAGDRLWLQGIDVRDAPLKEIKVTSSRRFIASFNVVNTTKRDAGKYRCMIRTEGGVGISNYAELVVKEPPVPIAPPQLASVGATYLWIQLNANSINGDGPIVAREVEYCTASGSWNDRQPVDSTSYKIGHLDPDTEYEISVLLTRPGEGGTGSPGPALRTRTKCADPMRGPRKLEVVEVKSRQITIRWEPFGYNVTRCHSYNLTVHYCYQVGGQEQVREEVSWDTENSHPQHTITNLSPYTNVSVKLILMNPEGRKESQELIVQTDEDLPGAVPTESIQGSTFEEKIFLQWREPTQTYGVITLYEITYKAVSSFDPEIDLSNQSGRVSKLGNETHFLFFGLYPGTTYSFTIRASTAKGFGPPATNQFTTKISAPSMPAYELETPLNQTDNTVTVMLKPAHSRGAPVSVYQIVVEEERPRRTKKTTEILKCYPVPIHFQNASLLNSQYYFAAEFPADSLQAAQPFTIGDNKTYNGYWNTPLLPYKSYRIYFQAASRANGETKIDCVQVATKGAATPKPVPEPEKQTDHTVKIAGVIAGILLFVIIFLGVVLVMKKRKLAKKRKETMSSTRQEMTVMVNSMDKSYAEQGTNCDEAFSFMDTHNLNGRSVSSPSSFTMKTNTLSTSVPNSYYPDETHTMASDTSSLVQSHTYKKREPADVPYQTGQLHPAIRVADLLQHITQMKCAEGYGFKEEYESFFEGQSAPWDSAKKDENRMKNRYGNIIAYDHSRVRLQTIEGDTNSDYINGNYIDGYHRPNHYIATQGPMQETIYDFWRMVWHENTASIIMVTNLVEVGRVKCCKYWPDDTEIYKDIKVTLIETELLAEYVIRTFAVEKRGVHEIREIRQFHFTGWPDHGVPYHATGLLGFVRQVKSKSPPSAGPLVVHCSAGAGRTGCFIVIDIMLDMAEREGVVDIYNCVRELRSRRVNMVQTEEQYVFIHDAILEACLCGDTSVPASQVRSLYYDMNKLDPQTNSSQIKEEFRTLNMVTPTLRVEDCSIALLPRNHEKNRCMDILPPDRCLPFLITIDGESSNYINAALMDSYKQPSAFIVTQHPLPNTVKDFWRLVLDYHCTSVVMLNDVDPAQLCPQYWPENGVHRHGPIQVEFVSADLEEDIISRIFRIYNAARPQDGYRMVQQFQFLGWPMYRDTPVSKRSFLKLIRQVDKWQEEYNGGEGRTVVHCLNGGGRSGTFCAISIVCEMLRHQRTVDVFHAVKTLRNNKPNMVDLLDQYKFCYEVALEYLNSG

Row | Compound | Effect on PTPμ phosphatase activity (released phosphate) (PTPμ; role: inhibitor, 100 μM, peptide substrate 60 μM, 30 °C, pH 7.4) | Effect on parental Sf9 cell survival (parental Sf9 cells) | Tumor size relative to starting size (LN229 tumor xenograft; 3 weeks post first injection, intratumoral once a week, 2 mM, 25 μl) [×] | Effect on tumor growth after treatment stopped (LN229 tumor xenograft; 4 weeks post first injection, in words) | Tumor histology (H&E) (LN229 tumor xenograft; tumors harvested at 4 weeks) | Effect on tumor growth (LN229 tumor xenograft; up to 3 weeks post first injection, intratumoral, in words) | Interference with malachite green dye (PTPμ; apparent reaction product in absence of enzyme/substrate)
1 | O=C(NCc1nc(-c2ccncc2)no1)c1ccc(Cl)c(S(=O)(=O)NCc2ccccc2)c1 [Compound 247678791] | modestly inhibit PTPμ's catalytic activity in vitro; also recorded: modest, but highly consistent reduction in released phosphate; also recorded: modestly inhibit the phosphatase activity of a PTPμ-intracellular construct; also recorded: modest, but statistically significant, reduction on enzymatic activity |  |  |  |  |  | 
2 | CCN(C(=O)CN1C(=O)NC(C)(CCC(C)C)C1=O)c1cccc2ccccc12 (centres unmarked) [Compound 247677616] |  | did not affect parental Sf9 cells |  |  |  |  | 
3 | COc1cc(C)ccc1OCC(=O)Nc1nc(-c2c[nH]c(C(N)=O)c2)cs1 [Compound 247678835] |  | did not affect parental Sf9 cells | 1.3 | appeared to rebound; also recorded: no longer statistically appreciable at 4 weeks post-injection | generally appeared less ‘cellular’ than DMSO-treated controls; also recorded: appeared smaller and less cellular | inhibit glioma-cell growth in a human glioma tumor model in mice; also recorded: inhibit flank tumor growth in vivo; also recorded: able to affect tumor growth in vivo; also recorded: slowed tumor growth, producing a statistically significant growth reduction by 3 weeks post-first injection | reacted with the malachite green dye, giving an apparent reaction product in the absence of enzyme/substrate; also recorded: interacted with the dye used to measure the release of free phosphate
